Source: paper PMC11356571, “The Comparative Metabolism of a Novel Hepatocellular Carcinoma Therapeutic Agent, 2,3-Diamino-N-(4-(benzo[d]thiazol-2-yl)phenyl)propanamide, in Human and Animal Hepatocytes” (Metabolites, 2024)

Experiments:
Assay type in all cases: in vitro ADME
CYP2C9 = molecular target: T1, CYP2C9 (Homo sapiens, UniProt P11712); experiment: Incubation with human cDNA-expressed CYP2C9; details: CYP2C9, 30 min at 37 °C with NADPH; ETN101 10 μM or M1 1 μM; diclofenac positive control
T1 construct: purchased Corning Life Sciences (Woburn, MA, USA)
Procedure: The mobile phases comprised 0.1% (v/v) formic acid in water (mobile phase A) and 0.1% formic acid (v/v) in acetonitrile (mobile phase B). […] The column and auto-sampler were maintained at 40 °C and 4 °C, respectively. ETN101, M1, and M2 were detected via MRM using ESI in the positive mode. […] Mass Hunter software (Agilent Technologies) was used to control the LC-MS/MS instrument and for data processing.

CYP2C8 = molecular target: T2, CYP2C8 (Homo sapiens, UniProt P10632); experiment: Incubation with human cDNA-expressed CYP2C8; details: CYP2C8, 30 min at 37 °C with NADPH; ETN101 10 μM or M1 1 μM
T2 construct: purchased Cypex Ltd. (Dundee, UK)
T2 sequence (P10632 1-490): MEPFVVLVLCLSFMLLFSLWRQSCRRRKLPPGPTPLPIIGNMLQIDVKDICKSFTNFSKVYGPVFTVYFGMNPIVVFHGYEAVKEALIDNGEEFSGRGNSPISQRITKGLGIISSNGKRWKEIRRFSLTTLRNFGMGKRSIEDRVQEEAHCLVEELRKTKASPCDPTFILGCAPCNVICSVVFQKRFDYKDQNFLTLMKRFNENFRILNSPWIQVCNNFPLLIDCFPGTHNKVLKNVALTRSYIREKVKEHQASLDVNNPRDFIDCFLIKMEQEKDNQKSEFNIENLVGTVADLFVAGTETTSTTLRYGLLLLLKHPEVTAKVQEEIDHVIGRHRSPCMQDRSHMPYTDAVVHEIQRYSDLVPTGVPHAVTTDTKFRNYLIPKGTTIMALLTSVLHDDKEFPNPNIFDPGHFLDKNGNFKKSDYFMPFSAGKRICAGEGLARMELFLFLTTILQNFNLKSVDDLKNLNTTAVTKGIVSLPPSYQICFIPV
Procedure: ETN101 or M1 was incubated with nine human cDNA-expressed CYP enzymes (1A2, 2A6, 2B6, 2C8, 2C9, 2C19, 2D6, 2E1, and 3A4) to identify the CYPs involved in the metabolism of ETN101. Based on the preliminary study, the incubation conditions were determined as follows: Briefly, reaction mixtures of 50 μL containing ETN101 (final concentration: 10 μM) or M1 (final concentration: 1 μM), and CYPs (final amount: 5 pmol for CYP1A2, 2A6, 2C8, 2C9, 2C19, 2D6, and 3A4; 10 pmol for CYP2B6 and 2E1) were prepared in 0.1 M potassium phosphate buffer. The reaction was initiated by adding 50 μL of NADPH- regenerating system; the mixtures were incubated for 0 min or 30 min at 37 °C in triplicate. Reactions were terminated by the addition of 100 μL of ice-cold acetonitrile containing the IS (camptothecin, 200 ng/mL). Samples were centrifuged at 13,000 rpm for 5 min at 4 °C. An aliquot of 2 μL supernatant was injected in LC–MS/MS system.
For enzyme characterization, an Agilent 6460 triple quadrupole mass spectrometer coupled with a 1260 HPLC system (Agilent Technologies, Santa Clara, CA, USA) and a Kinetex Halo® C18 column (2.7 μm, 2.1 × 50 mm, Advanced Material Technology, Wilmington, DE, USA) were used for chromatographic separation. […] ETN101, M1, and M2 were detected via MRM using ESI in the positive mode. […]

rat hepatocytes = experiment: Metabolite characterization in rat hepatocytes; details: rat hepatocyte 1 h incubates of ETN101; ND:<1.2E+05 peak area
Procedure: (§1) We mixed 60 μL aliquots of 40 μM ETN101 in incubation medium and an equal volume of human, mouse, rat, dog, or monkey hepatocyte suspension in 96-well plates and incubated for 0 or 1 h in a CO2 incubator at 37 °C. The reactions were quenched by adding 120 µL of ice-cold acetonitrile to each well, and the cell suspension was sonicated for 5 min at 4 °C. Subsequently, centrifugation was carried out at 15,000× g for 10 min at 4 °C. Next, the supernatants were evaporated to dryness using a vacuum concentrator, and residues were re-dissolved in 70 μL of 30% acetonitrile. Each sample (5 μL aliquots) was analyzed using LC–HRMS system.
(§2) For metabolite characterization, a Vanquish HPLC system (Thermo Fisher Scientific, San José, CA, USA) coupled with a Q-Exactive Orbitrap mass spectrometer (Thermo Fisher Scientific Inc., Waltham, MA, USA) was used at Core Research Support Center for Natural Products and Medical Materials at Yeungnam University. […] The eluent from the column was directly injected into the mass spectrometer using a heated electrospray ionization (HESI) source in positive ionization mode. […] The spray voltage was 3.0 kV and the capillary temperature was 320 °C. Full scan MS^1 with a data-dependent MS^2 acquisition mode was applied to obtain MS^1 scan data ranging from m/z 80 to 900, at a resolution of 70,000, whereas data-dependent MS^2 spectra were acquired for the five most abundant peaks per cycle at a resolution of 35,000. The parallel reaction monitoring (PRM) mode was used to obtain the MS^2 spectra of putative metabolites detected at low peak intensities in the data-dependent MS^2 acquisition mode. Data were collected and interpreted using Thermo Scientific Xcalibur™ Software (Thermo Fisher Scientific).

dog hepatocytes = experiment: Metabolite characterization in dog hepatocytes; details: dog hepatocyte 1 h incubates of ETN101; ND:<1.2E+05 peak area
Procedure: as §1, §2

T1 sequence (P11712 whole entry): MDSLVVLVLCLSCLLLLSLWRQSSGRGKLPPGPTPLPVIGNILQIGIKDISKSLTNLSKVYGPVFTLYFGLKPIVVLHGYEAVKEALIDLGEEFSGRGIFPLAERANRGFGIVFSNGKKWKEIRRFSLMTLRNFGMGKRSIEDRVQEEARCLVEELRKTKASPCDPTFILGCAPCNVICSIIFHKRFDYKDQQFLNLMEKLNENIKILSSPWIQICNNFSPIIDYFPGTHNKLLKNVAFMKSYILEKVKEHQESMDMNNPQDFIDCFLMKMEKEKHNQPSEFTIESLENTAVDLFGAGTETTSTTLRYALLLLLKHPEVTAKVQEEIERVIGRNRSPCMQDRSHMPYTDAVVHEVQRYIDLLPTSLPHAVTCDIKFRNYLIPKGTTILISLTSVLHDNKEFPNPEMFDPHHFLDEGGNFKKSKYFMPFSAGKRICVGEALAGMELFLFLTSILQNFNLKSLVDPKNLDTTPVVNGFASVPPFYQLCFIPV

SMILES | Percentage remaining (CYP2C9) | Percentage remaining (CYP2C8) | Relative peak area (%) (rat hepatocytes) | Relative peak area (%) (dog hepatocytes)
NCC(N)C(=O)Nc1ccc(-c2nc3ccccc3s2)cc1 (centres unmarked) [ETN101, 2,3-diamino-N-(4-(benzo[d]thiazol-2-yl)phenyl)propanamide] | 110.8% | 105.0% | 18.7% | 39.5%
Nc1ccc(-c2nc3ccccc3s2)cc1 [M1, 2-(4-aminophenyl)benzothiazole] | 80.1% | 86.6% | 75.2% | 55.9%
